Target: T1, human kinase Mps-1 (Homo sapiens, UniProt P33981)
T1 construct: N-terminally GST-tagged human full length recombinant Mps-1 kinase; purchased Invitrogen, Karslruhe, Germany PV4071
T1 sequence (P33981 1-857): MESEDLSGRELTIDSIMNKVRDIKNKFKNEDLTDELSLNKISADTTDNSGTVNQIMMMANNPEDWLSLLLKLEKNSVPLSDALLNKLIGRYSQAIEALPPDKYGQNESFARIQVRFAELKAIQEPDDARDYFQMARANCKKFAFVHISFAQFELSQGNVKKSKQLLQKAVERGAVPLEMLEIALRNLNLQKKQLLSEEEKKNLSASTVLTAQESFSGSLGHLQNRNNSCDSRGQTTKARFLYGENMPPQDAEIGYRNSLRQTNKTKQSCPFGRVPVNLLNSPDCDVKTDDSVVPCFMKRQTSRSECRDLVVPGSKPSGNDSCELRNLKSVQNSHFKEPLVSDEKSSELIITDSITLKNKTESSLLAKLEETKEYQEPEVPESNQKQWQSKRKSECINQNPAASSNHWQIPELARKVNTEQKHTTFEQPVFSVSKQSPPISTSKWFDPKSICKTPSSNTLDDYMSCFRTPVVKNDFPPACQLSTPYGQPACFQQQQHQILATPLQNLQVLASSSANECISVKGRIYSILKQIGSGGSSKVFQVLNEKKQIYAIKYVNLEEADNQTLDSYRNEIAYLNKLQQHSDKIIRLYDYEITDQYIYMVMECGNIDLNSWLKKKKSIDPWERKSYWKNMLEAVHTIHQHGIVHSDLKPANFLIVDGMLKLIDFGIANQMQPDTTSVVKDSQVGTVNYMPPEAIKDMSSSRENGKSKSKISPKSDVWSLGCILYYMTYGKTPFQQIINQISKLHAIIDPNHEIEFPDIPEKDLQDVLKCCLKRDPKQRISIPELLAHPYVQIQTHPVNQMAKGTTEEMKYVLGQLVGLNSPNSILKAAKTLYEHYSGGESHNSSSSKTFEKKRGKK
Test: Mps-1 kinase assay (TR-FRET, 10 μM ATP)
Assay type: biochemical
Conditions: N-terminally GST-tagged human full length recombinant Mps-1, read-out: Mps-1 Inhibition, IC50 (Assay with 10 μM ATP)
Method: The human kinase Mps-1 phosphorylates a biotinylated substrate peptide. Detection of the phosphorylated product is achieved by time-resolved fluorescence resonance energy transfer (TR-FRET) from Europium-labelled anti-phospho-Serine/Threonine antibody as donor to streptavidin Labelled with cross-linked allophycocyanin (SA-XLent) as acceptor. Compounds are tested for their inhibition of the kinase activity.
N-terminally GST-tagged human full length recombinant Mps-1 kinase (purchased from Invitrogen, Karslruhe, Germany, cat. no PV4071) was used. As substrate for the kinase reaction a biotinylated peptide of the amino-acid sequence PWDPDDADITEILG (C-terminus in amide form, purchased from Biosynthan GmbH, Berlin) was used.
For the assay 50 nl of a 100-fold concentrated solution of the test compound in DMSO was pipetted into a black low volume 384 well microtiter plate (Greiner Bio-One, Frickenhausen, Germany), 2 μl of a solution of Mps-1 in assay buffer [0.1 mM sodium-ortho-vanadate, 10 mM MgCl2, 2 mM DTT, 25 mM Hepes pH 7.7, 0.05% BSA, 0.001% Pluronic F-127] were added and the mixture was incubated for 15 min at 22° C. to allow pre-binding of the test compounds to Mps-1 before the start of the kinase reaction. Then the kinase reaction was started by the addition of 3 μl of a solution of […] (ATP, 16.7 μM=>final conc. in the 5 μl assay volume is 10 μM) and peptide substrate (1.67 μM=>final conc. in the 5 μl assay volume is 1 μM) in assay buffer and the resulting mixture was incubated for a reaction time of 60 min at 22° C. The concentration of Mps-1 in the assay was adjusted to the activity of the enzyme lot and was chosen appropriate to have the assay in the linear range, typical enzyme concentrations were in the range of about 1 nM (final conc. in the 5 μl assay volume). The reaction was stopped by the addition of 3 μl of a solution of HTRF detection reagents (100 mM Hepes pH 7.4, 0.1% BSA, 40 mM EDTA, 140 nM Streptavidin-XLent [#61GSTXLB, Fa. Cis Biointernational, Marcoule, France], 1.5 nM anti-phospho(Ser/Thr)-Europium-antibody [#AD0180, PerkinElmer LAS, Rodgau-Jügesheim, Germany].
The resulting mixture was incubated 1 h at 22° C. to allow the binding of the phosphorylated peptide to the anti-phospho(Ser/Thr)-Europium-antibody. Subsequently the amount of phosphorylated substrate was evaluated by measurement of the resonance energy transfer from the Europium-labelled anti-phospho(Ser/Thr) antibody to the Streptavidin-XLent. Therefore, the fluorescence emissions at 620 nm and 665 nm after excitation at 350 nm was measured in a Viewlux TR-FRET reader (PerkinElmer LAS, Rodgau-Jügesheim, Germany). The “blank-corrected normalized ratio” (a Viewlux specific readout, similar to the traditional ratio of the emissions at 665 nm and at 622 nm, in which blank and Eu-donor crosstalk are subtracted from the 665 nm signal before the ratio is calculated) was taken as the measure for the amount of phosphorylated substrate. The data were normalised (enzyme reaction without inhibitor=0% inhibition, all other assay components but no enzyme=100% inhibition).

IC50 [nM]	SMILES
≤ 1	COc1cc(C(=O)N2CCOCC2)ccc1Nc1nc2ccc(-c3ccc(NC(=O)Cc4ccc(F)cc4)cc3)nn2n1 [Example 1.1, 2-(4-fluorophenyl)-N-[4-(2-{[2-methoxy-4-(morpholin-4-ylcarbonyl)phenyl]amino}[1,2,4]triazolo[1,5-b]pyridazin-6-yl)phenyl]acetamide]
≤ 1	COc1cc(C(C)(C)O)ccc1Nc1nc2ccc(-c3ccc(NC(=O)Cc4ccc(F)cc4)cc3)nn2n1 [Example 1.2, 2-(4-fluorophenyl)-N-[4-(2-{[4-(2-hydroxypropan-2-yl)-2-methoxyphenyl]amino}[1,2,4]triazolo[1,5-b]pyridazin-6-yl)phenyl]acetamide]
≤ 1	N#Cc1ccccc1Nc1nc2cnc(-c3ccc(NC(=O)Cc4ccc(F)cc4)cc3)cn2n1 [Example 2.1, N-(4-{2-[(2-cyanophenyl)amino][1,2,4]triazolo[1,5-a]pyrazin-6-yl}phenyl)-2-(4-fluorophenyl)acetamide]
≤ 1	N#Cc1c(F)cccc1Nc1nc2cnc(-c3ccc(NC(=O)Cc4ccc(F)cc4)cc3)cn2n1 [Example 2.2, N-(4-{2-[(2-cyano-3-fluorophenyl)amino][1,2,4]triazolo[1,5-a]pyrazin-6-yl}phenyl)-2-(4-fluorophenyl)acetamide]
2.6	N#Cc1ccccc1Nc1nc2cnc(-c3ccc(NC(=O)Cc4ccccc4)cc3)cn2n1 [Example 2.3, N-(4-{2-[(2-cyanophenyl)amino][1,2,4]triazolo[1,5-a]pyrazin-6-yl}phenyl)-2-phenylacetamide]
≤ 1	COc1cc(N2CCN(C)CC2)ccc1Nc1nc2cnc(-c3ccc(NC(=O)Cc4ccc(F)cc4)cc3)cn2n1 [Example 2.4, 2-(4-fluorophenyl)-N-[4-(2-{[2-methoxy-4-(4-methylpiperazin-1-yl)phenyl]amino}[1,2,4]triazolo[1,5-a]pyrazin-6-yl)phenyl]acetamide]
≤ 1	N#Cc1c(F)cccc1Nc1nc2cnc(-c3ccc(NC(=O)Cc4ccccc4)cc3)cn2n1 [Example 2.5, N-(4-{2-[(2-cyano-3-fluorophenyl)amino][1,2,4]triazolo[1,5-a]pyrazin-6-yl}phenyl)-2-phenylacetamide]
2.1	N#Cc1ccccc1Nc1nc2cnc(-c3ccc(NC(=O)Cc4ccc(F)c(F)c4)cc3)cn2n1 [Example 2.6, N-(4-{2-[(2-cyanophenyl)amino][1,2,4]triazolo[1,5-a]pyrazin-6-yl}phenyl)-2-(3,4-difluorophenyl)acetamide]
2.9	N#Cc1c(F)cccc1Nc1nc2cnc(-c3ccc(NC(=O)Cc4ccc(F)c(F)c4)cc3)cn2n1 [Example 2.7, N-(4-{2-[(2-cyano-3-fluorophenyl)amino][1,2,4]triazolo[1,5-a]pyrazin-6-yl}phenyl)-2-(3,4-difluorophenyl)acetamide]
≤ 1	COc1cc(S(C)(=O)=O)ccc1Nc1nc2cnc(-c3ccc(NC(=O)Cc4ccc(F)cc4)cc3)cn2n1 [Example 2.8, 2-(4-fluorophenyl)-N-[4-(2-{[2-methoxy-4-(methylsulfonyl)phenyl]amino}[1,2,4]triazolo[1,5-a]pyrazin-6-yl)phenyl]acetamide]
33.5	Cc1cc(-c2cn3nc(Nc4ccccc4C#N)nc3cn2)cc(C)c1O [Example 3.1, 2-{[6-(4-hydroxy-3,5-dimethylphenyl)[1,2,4]triazolo[1,5-a]pyrazin-2-yl]amino}benzonitrile]
22.4	N#Cc1ccccc1Nc1nc2cnc(-c3ccc(NC(=O)CC4CC4)cc3)cn2n1 [Example 3.2, N-(4-{2-[(2-cyanophenyl)amino][1,2,4]triazolo[1,5-a]pyrazin-6-yl}phenyl)-2-cyclopropylacetamide]
84.1	N#Cc1ccccc1Nc1nc2cnc(-c3cccc(C(=O)NC4CC4)c3)cn2n1 [Example 3.3, 3-{2-[(2-cyanophenyl)amino][1,2,4]triazolo[1,5-a]pyrazin-6-yl}-N-cyclopropylbenzamide]
206	CCNC(=O)c1cccc(-c2cn3nc(Nc4ccccc4C#N)nc3cn2)c1 [Example 3.4, 3-{2-[(2-cyanophenyl)amino][1,2,4]triazolo[1,5-a]pyrazin-6-yl}-N-ethylbenzamide]
35.4	N#Cc1ccccc1Nc1nc2cnc(-c3cccc(C(=O)NC4CCCC4)c3)cn2n1 [Example 3.5, 3-{2-[(2-cyanophenyl)amino][1,2,4]triazolo[1,5-a]pyrazin-6-yl}-N-cyclopentylbenzamide]
14.6	N#Cc1c(F)cccc1Nc1nc2cnc(-c3ccc(NC(=O)CC4CC4)cc3)cn2n1 [Example 3.6, N-(4-{2-[(2-cyano-3-fluorophenyl)amino][1,2,4]triazolo[1,5-a]pyrazin-6-yl}phenyl)-2-cyclopropylacetamide]
443	N#Cc1ccccc1Nc1nc2cnc(-c3ccc(N)cc3)cn2n1 [Example 3.7, 2-{[6-(4-aminophenyl)[1,2,4]triazolo[1,5-a]pyrazin-2-yl]amino}benzonitrile]
71.6	COc1ccccc1Nc1nc2cnc(-c3cc(C)c(O)c(C)c3)cn2n1 [Example 3.8, 4-{2-[(2-methoxyphenyl)amino][1,2,4]triazolo[1,5-a]pyrazin-6-yl}-2,6-dimethylphenol]
69	N#Cc1ccccc1Nc1nc2cnc(-c3cccc(C(=O)NC4CCCCC4)c3)cn2n1 [Example 3.9, 3-{2-[(2-cyanophenyl)amino][1,2,4]triazolo[1,5-a]pyrazin-6-yl}-N-cyclohexylbenzamide]
≤ 1	COc1cc(C(=O)N2CCOCC2)ccc1Nc1nc2ccc(-c3ccc(NC(=O)Cc4ccc(F)cc4)cc3)cc2s1 [Example 4.1, 2-(4-fluorophenyl)-N-[4-(2-{[2-methoxy-4-(morpholin-4-ylcarbonyl)phenyl]amino}-1,3-benzothiazol-6-yl)phenyl]acetamide]
2.9	COc1cc(S(C)(=O)=O)ccc1Nc1nc2ccc(-c3ccc(NC(=O)Cc4ccc(F)cc4)cc3)cc2s1 [Example 4.2, 2-(4-fluorophenyl)-N-[4-(2-{[2-methoxy-4-(methylsulfonyl)phenyl]amino}-1,3-benzothiazol-6-yl)phenyl]acetamide]
8.6	Nc1nc2ccc(-c3ccc(NC(=O)Cc4ccc(F)cc4)cc3)cc2s1 [Example 4.3, N-[4-(2-amino-1,3-benzothiazol-6-yl)phenyl]-2-(4-fluorophenyl)acetamide]
≤ 1	COc1cc(S(C)(=O)=O)cnc1Nc1cn2cc(-c3ccc(NC(=O)[C@H](C)c4ccc(F)cc4)cc3)ccc2n1 [Example 7.1, (2R)-2-(4-fluorophenyl)-N-[4-(2-{[3-methoxy-5-(methylsulfonyl)pyridin-2-yl]amino}imidazo[1,2-a]pyridin-6-yl)phenyl]propanamide]

Source: patent publication US20160207928A1, “NOVEL COMPOUNDS FOR THE TREATMENT OF CANCER” (BAYER PHARMA AKTIENGESELLSCHAFT, priority 2013, published 2016)
